Data on one compound can be found in patent US11166924B2, “N-methyl-d-aspartate receptor allosteric modulators and methods for their use” (Qingdao Primedicine Pharmaceutical Company, Ltd., priority 2016, dated 2021).

For assay [1], the target named is T1, GluN1/GluN2A^P79A (Rattus norvegicus, UniProt P35439+Q00959, P79A).
T1 construct: expressed in transfected cells; host or cells: HEK293
Briefly: Patch clamp in HEK293 cells expressing mutant GluN1/GluN2A P79A. The class given is cell-based. The protocol: (§1) Whole cell patch-clamp recordings were performed under voltage-clamp mode using an Axopatch 200B or 1D patch-clamp amplifier (Molecular Devices). Whole-cell currents were recorded at a holding potential of −60 mV unless indicated elsewhere, and signals were filtered at 2 kHz, digitized at 10 kHz (Digidata 1322A). Recording pipettes (3-5 MΩ) were filled with intracellular solution containing (mM): CsCl 140, HEPES 10, Mg-ATP 4, QX-314 5, pH 7.20; osmolarity, 290-295 mOsm. BAPTA (10 mM) was added in the intracellular solution (unless otherwise specified). The coverslips were continuously superfused with extracellular solution containing (mM): NaCl 140, KCl 5.4, HEPES 10, CaCl2 1.3, glucose 20, pH 7.4; osmolarity, 305-315 mOsm. NMDA-induced currents were applied by NMDA through perfusion fast-step (Warner Instruments). With perfusion fast-step system, NMDA application was achieved by using a two-square barrel glass tubing and depending on the age of the cultured neurons, CNQX (10 μM), TTX (0.5 μM) or BIC (10 μM) were added in the extracellular solution to minimize the activation of ionotropic glutamate receptors and voltage-gated sodium channels, respectively. All experiments were performed at room temperature. Recordings from at least six HEK293 cells/neurons were performed for all active compounds. […]
(The patch-clamp technique gives a direct electrical read-out from membranes.)

For assay [2], the target named is T2, GluN1^R115E/GluN2A (Rattus norvegicus, UniProt P35439+Q00959, R115E).
T2 construct: expressed in transfected cells; host or cells: HEK293
The experiment in a line: Patch clamp in HEK293 cells expressing mutant GluN1 R115E/GluN2A. The format is cell-based. As to the method:
as §1

Assay [3] concerns the target T3, GluN1^L135Q/GluN2A (Rattus norvegicus, UniProt P35439+Q00959, L135Q).
T3 construct: expressed in transfected cells; host or cells: HEK293
Briefly: Patch clamp in HEK293 cells expressing mutant GluN1 L135Q/GluN2A. The format is cell-based. As to the method: as §1

The subject of assay [4] is GluN1 or GluN2A mutants. Briefly: Patch clamp in HEK293 cells, another 8 mutations within the defined pocket (summary). The format is cell-based, rat. As to the method:
as §1

T3 sequence (Q00959 23-1464, other chains not shown): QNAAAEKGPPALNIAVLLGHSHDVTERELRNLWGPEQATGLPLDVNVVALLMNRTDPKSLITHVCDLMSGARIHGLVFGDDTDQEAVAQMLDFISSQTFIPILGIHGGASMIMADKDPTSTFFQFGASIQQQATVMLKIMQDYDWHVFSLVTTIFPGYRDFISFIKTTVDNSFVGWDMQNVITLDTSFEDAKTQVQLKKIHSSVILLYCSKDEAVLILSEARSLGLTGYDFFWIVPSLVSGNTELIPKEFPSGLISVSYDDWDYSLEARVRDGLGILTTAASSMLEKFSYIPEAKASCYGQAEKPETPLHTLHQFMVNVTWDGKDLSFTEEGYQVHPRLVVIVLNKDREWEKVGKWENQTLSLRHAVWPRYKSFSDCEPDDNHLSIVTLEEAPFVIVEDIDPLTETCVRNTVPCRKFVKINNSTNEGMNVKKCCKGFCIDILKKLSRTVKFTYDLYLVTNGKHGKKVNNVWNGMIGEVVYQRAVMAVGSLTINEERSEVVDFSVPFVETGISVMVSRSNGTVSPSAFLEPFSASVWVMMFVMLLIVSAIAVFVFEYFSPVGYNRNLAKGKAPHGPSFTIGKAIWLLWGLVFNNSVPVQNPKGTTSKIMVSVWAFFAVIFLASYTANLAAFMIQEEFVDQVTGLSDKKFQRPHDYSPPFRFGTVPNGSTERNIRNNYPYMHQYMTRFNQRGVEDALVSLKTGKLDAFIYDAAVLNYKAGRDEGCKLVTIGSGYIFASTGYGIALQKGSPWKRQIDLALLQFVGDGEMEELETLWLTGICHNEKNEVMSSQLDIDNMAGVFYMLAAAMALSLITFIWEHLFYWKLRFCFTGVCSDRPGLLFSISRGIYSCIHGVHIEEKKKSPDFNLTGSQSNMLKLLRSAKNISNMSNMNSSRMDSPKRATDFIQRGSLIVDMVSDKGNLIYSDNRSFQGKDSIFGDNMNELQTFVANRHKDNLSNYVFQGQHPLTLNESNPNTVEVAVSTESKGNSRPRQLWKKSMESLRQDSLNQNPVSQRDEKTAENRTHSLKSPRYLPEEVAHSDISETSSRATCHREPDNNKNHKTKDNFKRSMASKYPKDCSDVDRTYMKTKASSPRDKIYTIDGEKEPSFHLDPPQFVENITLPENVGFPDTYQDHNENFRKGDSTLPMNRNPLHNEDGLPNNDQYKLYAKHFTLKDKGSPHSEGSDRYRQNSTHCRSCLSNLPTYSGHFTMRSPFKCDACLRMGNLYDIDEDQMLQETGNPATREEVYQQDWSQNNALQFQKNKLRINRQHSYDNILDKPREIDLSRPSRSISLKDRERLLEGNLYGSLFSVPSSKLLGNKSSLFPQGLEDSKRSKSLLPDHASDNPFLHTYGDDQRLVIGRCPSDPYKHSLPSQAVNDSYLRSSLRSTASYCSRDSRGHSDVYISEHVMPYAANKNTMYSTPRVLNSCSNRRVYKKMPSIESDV
T2 sequence (Q00959 23-1464, other chains not shown): as above
T1 sequence (Q00959 23-1464 P79A, other chains not shown): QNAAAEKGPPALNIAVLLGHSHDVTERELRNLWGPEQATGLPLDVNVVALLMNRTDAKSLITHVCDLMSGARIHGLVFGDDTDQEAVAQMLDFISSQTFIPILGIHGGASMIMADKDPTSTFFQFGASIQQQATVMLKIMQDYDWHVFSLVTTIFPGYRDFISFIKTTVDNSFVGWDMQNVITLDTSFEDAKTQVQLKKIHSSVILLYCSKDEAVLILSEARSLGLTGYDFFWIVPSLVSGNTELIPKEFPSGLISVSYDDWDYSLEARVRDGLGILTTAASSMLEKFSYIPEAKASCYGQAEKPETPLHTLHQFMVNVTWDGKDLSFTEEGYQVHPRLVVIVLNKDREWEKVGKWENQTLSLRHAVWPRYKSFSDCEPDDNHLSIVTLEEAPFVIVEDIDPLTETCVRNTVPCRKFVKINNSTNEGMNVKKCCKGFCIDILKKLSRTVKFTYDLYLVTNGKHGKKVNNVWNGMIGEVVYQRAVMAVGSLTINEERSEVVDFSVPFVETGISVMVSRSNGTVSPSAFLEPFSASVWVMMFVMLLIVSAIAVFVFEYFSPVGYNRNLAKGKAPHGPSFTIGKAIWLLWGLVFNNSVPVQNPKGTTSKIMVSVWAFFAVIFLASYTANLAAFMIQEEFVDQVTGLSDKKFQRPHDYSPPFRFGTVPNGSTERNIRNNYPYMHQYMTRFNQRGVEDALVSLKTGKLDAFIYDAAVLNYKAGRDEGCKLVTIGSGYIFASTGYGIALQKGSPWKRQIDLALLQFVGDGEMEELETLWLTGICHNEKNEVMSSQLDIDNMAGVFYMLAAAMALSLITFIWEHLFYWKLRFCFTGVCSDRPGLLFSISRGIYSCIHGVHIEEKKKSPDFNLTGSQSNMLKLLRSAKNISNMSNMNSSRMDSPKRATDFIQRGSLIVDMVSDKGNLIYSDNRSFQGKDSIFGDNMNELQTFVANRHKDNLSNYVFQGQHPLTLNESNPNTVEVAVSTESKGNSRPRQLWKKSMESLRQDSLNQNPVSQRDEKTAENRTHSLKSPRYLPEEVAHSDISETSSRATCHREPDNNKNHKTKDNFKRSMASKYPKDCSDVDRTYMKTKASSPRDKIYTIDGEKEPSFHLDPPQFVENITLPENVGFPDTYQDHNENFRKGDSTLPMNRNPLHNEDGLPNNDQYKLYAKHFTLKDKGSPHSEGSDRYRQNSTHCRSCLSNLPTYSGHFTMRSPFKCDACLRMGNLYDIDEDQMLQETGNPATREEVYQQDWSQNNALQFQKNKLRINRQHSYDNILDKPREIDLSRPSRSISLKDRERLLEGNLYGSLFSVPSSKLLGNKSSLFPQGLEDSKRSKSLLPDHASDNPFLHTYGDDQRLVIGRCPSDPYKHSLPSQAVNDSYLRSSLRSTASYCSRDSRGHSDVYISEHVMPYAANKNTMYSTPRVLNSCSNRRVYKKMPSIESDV

As to `CCOc1cc(Cl)c(Cl)c(/C=N/NC(=O)c2ccccc2Br)c1O` [Npam43, (E)-2-bromo-N′-(2,3-dichloro-5-ethoxy-6-hydroxybenzylidene)benzohydrazide], the Relative potentiation came to 99.3 ± 2.8% in assay [1] (Table 3), 255 ± 3.5% in assay [2] (Table 3) and 47.1 ± 2.8% in assay [3] (Table 3). In addition, the figures for the “Net Difference potentiation” value in assay [1] (normalized to wild-type), in assay [2] (normalized to wild-type) and in assay [3] (normalized to wild-type) were −52.5 ± 0.20%, “+22.0 ± 0.40%” and −77.5±2.12%, respectively. Further, the Reduction in potentiation in assay [4] is on record as 10-62%.
